Experimental findings from ChEMBL document CHEMBL2169811, “Oncoepigenomics: making histone lysine methylation count” (Eur J Med Chem, 2012) are described below.

The target of assay [1] is T1, Histone-lysine N-methyltransferase EHMT2 (Homo sapiens, UniProt Q96KQ7).
T1 sequence (Q96KQ7 whole entry): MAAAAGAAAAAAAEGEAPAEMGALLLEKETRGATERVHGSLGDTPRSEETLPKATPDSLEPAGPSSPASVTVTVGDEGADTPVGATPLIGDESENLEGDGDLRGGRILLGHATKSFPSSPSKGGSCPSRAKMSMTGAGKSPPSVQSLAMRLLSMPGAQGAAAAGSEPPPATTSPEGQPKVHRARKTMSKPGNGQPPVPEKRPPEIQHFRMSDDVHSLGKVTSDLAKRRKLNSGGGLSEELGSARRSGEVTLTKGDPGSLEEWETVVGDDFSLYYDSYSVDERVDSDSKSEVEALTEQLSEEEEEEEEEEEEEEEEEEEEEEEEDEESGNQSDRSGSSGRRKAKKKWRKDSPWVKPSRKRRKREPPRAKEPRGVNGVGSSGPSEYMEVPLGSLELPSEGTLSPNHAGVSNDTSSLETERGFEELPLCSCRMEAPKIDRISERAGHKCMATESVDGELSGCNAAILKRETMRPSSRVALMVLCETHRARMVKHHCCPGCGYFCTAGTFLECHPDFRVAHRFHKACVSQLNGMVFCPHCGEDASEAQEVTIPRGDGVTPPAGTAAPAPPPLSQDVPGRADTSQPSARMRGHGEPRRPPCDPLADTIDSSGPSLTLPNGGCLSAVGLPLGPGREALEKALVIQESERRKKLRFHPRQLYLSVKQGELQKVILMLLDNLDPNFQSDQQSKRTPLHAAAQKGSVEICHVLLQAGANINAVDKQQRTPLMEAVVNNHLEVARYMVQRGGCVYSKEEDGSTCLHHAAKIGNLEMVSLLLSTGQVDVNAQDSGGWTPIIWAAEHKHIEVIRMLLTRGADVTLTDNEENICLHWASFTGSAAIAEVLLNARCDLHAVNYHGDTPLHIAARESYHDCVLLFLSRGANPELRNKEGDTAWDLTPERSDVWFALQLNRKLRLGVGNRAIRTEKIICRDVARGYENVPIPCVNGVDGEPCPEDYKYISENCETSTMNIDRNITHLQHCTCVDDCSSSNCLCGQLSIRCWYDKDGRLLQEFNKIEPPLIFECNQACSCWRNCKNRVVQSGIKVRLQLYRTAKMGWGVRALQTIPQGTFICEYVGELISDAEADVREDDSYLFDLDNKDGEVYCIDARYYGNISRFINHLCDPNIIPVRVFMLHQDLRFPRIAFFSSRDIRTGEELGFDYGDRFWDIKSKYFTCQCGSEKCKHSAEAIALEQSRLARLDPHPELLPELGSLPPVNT
Description: Inhibition of G9a.

The target of assay [2] is T2, Histone-lysine N-methyltransferase SUV39H1 (Homo sapiens, UniProt O43463).
T2 sequence (O43463 whole entry): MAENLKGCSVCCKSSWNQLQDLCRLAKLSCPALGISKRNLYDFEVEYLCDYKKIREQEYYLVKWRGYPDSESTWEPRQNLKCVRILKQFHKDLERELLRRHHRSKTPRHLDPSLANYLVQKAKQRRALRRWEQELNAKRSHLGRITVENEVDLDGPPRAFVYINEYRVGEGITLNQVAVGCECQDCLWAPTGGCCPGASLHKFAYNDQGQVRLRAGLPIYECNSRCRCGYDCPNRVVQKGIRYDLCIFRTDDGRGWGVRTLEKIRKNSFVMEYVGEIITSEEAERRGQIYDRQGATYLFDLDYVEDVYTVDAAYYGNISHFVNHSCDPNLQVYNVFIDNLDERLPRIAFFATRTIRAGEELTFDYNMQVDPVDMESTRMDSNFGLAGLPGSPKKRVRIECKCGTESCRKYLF

The target in assay [3] is T3, Lysine-specific demethylase 4E (Homo sapiens, UniProt B2RXH2).
T3 sequence (B2RXH2 whole entry): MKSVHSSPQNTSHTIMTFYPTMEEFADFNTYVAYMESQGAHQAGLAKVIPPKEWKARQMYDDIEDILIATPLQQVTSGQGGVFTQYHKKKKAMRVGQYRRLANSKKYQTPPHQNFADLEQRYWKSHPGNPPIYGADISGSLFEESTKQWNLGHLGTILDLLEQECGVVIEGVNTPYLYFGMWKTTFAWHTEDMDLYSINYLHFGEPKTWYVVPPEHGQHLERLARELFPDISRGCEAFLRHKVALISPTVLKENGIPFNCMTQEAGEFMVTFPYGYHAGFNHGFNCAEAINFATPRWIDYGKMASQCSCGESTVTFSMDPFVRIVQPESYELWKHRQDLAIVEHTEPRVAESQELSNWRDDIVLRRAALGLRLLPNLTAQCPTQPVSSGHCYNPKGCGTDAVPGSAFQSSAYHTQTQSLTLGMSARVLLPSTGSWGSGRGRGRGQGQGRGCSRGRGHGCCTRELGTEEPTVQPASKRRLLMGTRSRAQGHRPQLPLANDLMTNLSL
Description: Inhibition of JMJD2E catalytic domain by mass spectrophotometric analysis

Assay [4] deals with RKO. Kind of assay: Growth inhibition of human RKO cells expressing p53 after 24 to 48 hrs by MTT assay. In kind it is functional.
Assay [5] concerns HCT-116. Kind of assay: Growth inhibition of human HCT116 cells after 24 to 48 hrs by MTT assay. It is filed as functional.
The target in assay [6] is T2, Histone-lysine N-methyltransferase SUV39H1. Description: Inhibition of SUV39H1 using [3H]-SAM as substrate preincubated for 10 mins before substrate addition measured after 30 mins by scintillation counter.
In assay [7] the target is T4, Histone-arginine methyltransferase CARM1 (Homo sapiens, UniProt Q86X55).
T4 sequence (Q86X55 whole entry): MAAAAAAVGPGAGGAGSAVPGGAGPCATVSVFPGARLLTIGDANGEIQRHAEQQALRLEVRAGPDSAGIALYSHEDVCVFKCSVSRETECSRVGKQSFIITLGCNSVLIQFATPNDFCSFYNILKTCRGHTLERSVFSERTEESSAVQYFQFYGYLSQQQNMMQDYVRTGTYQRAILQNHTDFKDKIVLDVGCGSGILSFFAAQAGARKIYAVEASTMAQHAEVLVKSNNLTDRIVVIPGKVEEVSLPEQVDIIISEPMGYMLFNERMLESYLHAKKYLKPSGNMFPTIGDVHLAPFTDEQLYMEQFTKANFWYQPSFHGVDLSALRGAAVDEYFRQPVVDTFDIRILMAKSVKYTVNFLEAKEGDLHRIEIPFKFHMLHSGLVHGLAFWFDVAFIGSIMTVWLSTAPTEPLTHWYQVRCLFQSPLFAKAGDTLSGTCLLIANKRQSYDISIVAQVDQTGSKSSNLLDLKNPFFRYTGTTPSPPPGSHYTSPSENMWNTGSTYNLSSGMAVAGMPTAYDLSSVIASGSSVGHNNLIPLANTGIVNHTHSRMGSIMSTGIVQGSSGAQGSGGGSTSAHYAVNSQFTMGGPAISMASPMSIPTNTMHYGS
Description: Inhibition of human CARM1 expressed in Escherichia coli BL21 (DE3) using [3H]-SAM as substrate preincubated for 10 mins before substrate addition measured after 30 mins by scintillation counter

Assay [8] addresses Protein arginine N-methyltransferase 1 (Homo sapiens, UniProt Q99873).
Description: Inhibition of PRMT1 using [3H]-SAM as substrate preincubated for 10 mins before substrate addition measured after 30 mins by scintillation counter
The target of assay [9] is T1, Histone-lysine N-methyltransferase EHMT2. Description: Inhibition of G9a using [3H]-SAM as substrate preincubated for 10 mins before substrate addition measured after 30 mins by scintillation counter.
Assay [10] has as its system HeLa. Kind of assay: Growth inhibition of human HeLa cells after 48 hrs by MTT assay. In kind it is functional.
The test system of assay [11] is PC-3. Description: Growth inhibition of human PC3 cells after 48 hrs by MTT assay. The following applies: PC-3, 48 h. In kind it is functional.
A short description of assay [12]: Growth inhibition of human KYSE-150 cells after 48 hrs by MTT assay. In kind it is functional. The following applies: KYSE-150, 48 h.
In assay [13] the test system is HCT-116. Description: Growth inhibition of human HCT116 cells after 48 hrs by MTT assay. In kind it is functional. The following applies: HCT-116, 48 h.
Assay [14] relates to SH-SY5Y. Description: Growth inhibition of human SH-SY5Y cells after 48 hrs by MTT assay. In kind it is functional.
Assay [15] deals with T3, Lysine-specific demethylase 4E. Description: Inhibition of human JMJD2E.
Assay [16] addresses T1, Histone-lysine N-methyltransferase EHMT2.
Description: Inhibition of GST-tagged G9a after 1 hr by radioactive filter-binding assay
For assay [17], the target named is T3, Lysine-specific demethylase 4E. Kind of assay: Inhibition of JMJD2E.
Assay [18] is filed under the species Homo sapiens. Description: Selectivity ratio of IC50 for GLP to IC50 for human SMYD2.
The species named for assay [19] is Homo sapiens. Kind of assay: Selectivity ratio of IC50 for SMYD3 to IC50 for human SMYD2.
For assay [20], the species on record is Homo sapiens. Description: Selectivity ratio of IC50 for DOT1L to IC50 for human SMYD2.
For assay [21], the species on record is Homo sapiens. Kind of assay: Selectivity ratio of IC50 for SET7/9 to IC50 for human SMYD2.
Assay [22] addresses T5, N-lysine methyltransferase SMYD2 (Homo sapiens, UniProt Q9NRG4). Kind of assay: Inhibition of full length human SMYD2 amino acid 1 to 433 expressed in Escherichia coli BL21 (DE3) using Biotinaminohexanoyl- GSRAHSSHLKSKKGQSTSRH as substrate after 75 mins by AlphaScreen assay.
For assay [23], the species on record is Homo sapiens. Kind of assay: Selectivity ratio of IC50 for G9a to IC50 for human SMYD2.
Assay [24] has as its target T5, N-lysine methyltransferase SMYD2. Kind of assay: Competitive binding affinity to full length human SMYD2 amino acid 1 to 433 expressed in Escherichia coli BL21 (DE3) after 90 mins by radioactive filter-binding assay in presence of P53 peptide.
The species entered for assay [25] is Homo sapiens. Description: Selectivity ratio of IC50 for EZH2 to IC50 for human SMYD2.
The target in assay [26] is Lysine-specific histone demethylase 1A (Homo sapiens, UniProt O60341).
Description: Inhibition of full length N-terminal 6x His-tagged human LSD1 expressed in Escherichia coli BL21 (DE3) using H3K4me2 peptide as substrate by luminol dependent chemiluminescence assay

T5 sequence (Q9NRG4 whole entry): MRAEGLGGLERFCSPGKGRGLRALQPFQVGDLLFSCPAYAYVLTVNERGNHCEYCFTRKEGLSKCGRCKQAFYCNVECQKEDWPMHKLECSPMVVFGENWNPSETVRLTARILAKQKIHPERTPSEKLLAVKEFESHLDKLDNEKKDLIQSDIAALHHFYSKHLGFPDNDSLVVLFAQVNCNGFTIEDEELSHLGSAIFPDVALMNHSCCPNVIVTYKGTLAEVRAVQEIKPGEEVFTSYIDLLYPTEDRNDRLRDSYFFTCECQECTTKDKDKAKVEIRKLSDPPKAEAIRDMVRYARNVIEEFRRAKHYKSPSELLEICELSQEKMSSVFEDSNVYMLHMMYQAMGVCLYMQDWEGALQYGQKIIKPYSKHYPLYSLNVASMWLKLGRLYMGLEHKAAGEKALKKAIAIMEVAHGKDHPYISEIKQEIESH
Sequence of Protein arginine N-methyltransferase 1 (Q99873 whole entry): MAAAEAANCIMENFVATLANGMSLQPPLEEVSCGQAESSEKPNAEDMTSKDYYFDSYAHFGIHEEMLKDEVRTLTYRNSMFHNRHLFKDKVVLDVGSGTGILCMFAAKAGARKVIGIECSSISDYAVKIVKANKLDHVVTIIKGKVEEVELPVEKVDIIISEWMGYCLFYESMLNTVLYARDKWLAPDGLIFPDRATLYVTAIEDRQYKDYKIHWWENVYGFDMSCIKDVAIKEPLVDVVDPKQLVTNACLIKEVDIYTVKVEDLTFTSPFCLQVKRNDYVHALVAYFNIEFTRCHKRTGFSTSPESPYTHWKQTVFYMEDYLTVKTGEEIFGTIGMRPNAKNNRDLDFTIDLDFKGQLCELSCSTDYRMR

Consider `CS[C@]1(CO)C(=O)N2[C@H]3C(=CC=C[C@@H]3OC(C)=O)C[C@@]2(SC)C(=O)N1C`, for which the IC50 in [1] and in assay [2] was more than 10 µM in each case.
In [3], `NCCNC(=O)c1ccnc(-c2cc(C(=O)O)ccn2)c1` had an IC50 of 0.18 µM.
For the compound `CCNCCCCNCCCCNCCCCNCCCCNC/C=C/CNCCCCNCCCCNCCCCNCCCCNCC`, the GI50 in assay [4] and in [5] was 2.5 µM in each case.
For `N[C@@H](CCCN(CCI)C[C@H]1O[C@@H](n2cnc3c(NCc4ccccc4)ncnc32)[C@H](O)[C@@H]1O)C(=O)O`, the IC50 in [6], in [7], in [8] and in assay [9] was more than 100 µM in each case.
On to `NC1CC1c1cccc(OCC[C@H](NC(=O)c2ccccc2)C(=O)NCc2ccccc2)c1` (stereo partly drawn), for which the GI50 in assay [10], in assay [11], in assay [12], in assay [13] and in [14] was 6 µM throughout.
Consider `CNc1ncnc2c1ncn2[C@@H]1O[C@H](CN(CCI)CCC[C@H](N)C(=O)O)[C@@H](O)[C@H]1O`, for which the IC50 in [6], in assay [7] and in assay [9] was more than 100 µM each time.
Regarding `N[C@@H]1C[C@H]1c1ccc(OCC[C@H](NC(=O)c2ccccc2)C(=O)NCc2ccccc2)cc1`, the GI50 in [10], in assay [11], in assay [12], in [13] and in [14] was 6 µM throughout.
As for `O=C(O)c1ccnc(C(=O)O)c1Nc1ccccc1F`, half-maximal inhibition in [15] (IC50) required 2.5 µM.
In assay [16], `CN1C(=O)[C@]23C[C@@]4([C@@]56C[C@]78SS[C@](CO)(C(=O)N7[C@@H]5Nc5ccccc56)N(C)C8=O)c5ccccc5N[C@H]4N2C(=O)[C@@]1(CO)SS3` returned an IC50 of 1.7 µM.
In assay [12], `O=C(O)/C=C/C(=O)N(O)CCCCNCc1ccc(COC(=O)Nc2cccc3ccccc23)cc1` had a GI50 of 5.1 µM. In addition, it took 5.9 µM to reach half-maximal inhibition in [17] (IC50).
`O=C(O)c1ccnc(-c2cc(C(=O)NCCc3ccccc3)ccn2)c1` showed a half-inhibitory concentration (IC50) in assay [3] of 0.11 µM.
Regarding `O=C1COc2c(CCNCCN(C(=O)CCNCCc3ccc(Cl)c(Cl)c3)C3CCCCC3)ccc(O)c2N1`, the Ratio IC50 in assay [18], in assay [19], in [20], in assay [21], in assay [23] and in [25] was 700 in each case. The compound also yielded a half-maximal inhibitory concentration (IC50) in assay [22] of 0.12 µM. Further, in [24], the Ki came out at 0.3 µM.
In the case of `C/N=C(\NC)NCCCNCCCNCCCN/C(=N/C)NC`, the IC50 in [26] amounted to 0.5 µM.
Regarding `CN1C(=O)[C@]23CC4=CC=C[C@H](O)[C@H]4N2C(=O)[C@@]1(CO)SS3` [GLIOTOXIN], the results for the IC50 in [1] and in assay [2] were 0.53 µM and 0.26 µM, respectively.
Consider `CCNCCCCNCCCCNCCCCNCCCCNC/C=C\CNCCCCNCCCCNCCCCNCCCCNCC`, for which the GI50 in [4] and in assay [5] was 2.5 µM in each case.
In assay [16], `CN1C(=O)[C@H]2C[C@]3([C@]45C[C@@H]6C(=O)N(C)[C@H](CO)C(=O)N6[C@H]4Nc4ccccc45)c4ccccc4N[C@@H]3N2C(=O)[C@H]1CO` displayed an IC50 of more than 50 µM.
Take `CN1C(=O)[C@@]23C[C@]4([C@]56C[C@@]78SS[C@@](C)(C(=O)N7[C@H]5Nc5ccccc56)N(C)C8=O)c5ccccc5N[C@@H]4N2C(=O)[C@]1(C)SS3`: the figures for the IC50 in assay [1] and in assay [2] were 0.63 µM and 0.53 µM, respectively.
